Data set [1] has as its system SARS-CoV-2 isolate USA-WA1/2020. Put plainly: microbe, parasite or virus in culture. The format is cell-based. The note with it: Severe acute respiratory syndrome coronavirus 2, Vero C1008, Vero E6 TMPRSS ACE2 cells, treated 1 hr with compound, MOI=0.1, 48 h; for EC50: read-out: CPE EC50; for EC90: read-out: CPE EC90.
The nature of data set [2]: in vitro. The settings on record: African green monkey.

Molecules are shown by their SMILES.

By EC50 is commonly meant the midpoint of the concentration-response curve. The term EC90 denotes the concentration needed for an effect of 90%. Consider `COC(=O)/C=C/C(=O)NNC(=O)CCc1ccccc1C(=O)NC1(c2cccc3ccccc23)CC1` [NEU-7768], for which, in data set [1], the EC50 came to 22 nM and the EC90 is 250 nM. The CC50 at 48 h in data set [2] is greater than 10000 nM.

For `COC(=O)/C=C/C(=O)NNC(=O)CCc1ccccc1C(=O)NC1(c2cccc3ccccc23)COC1` [NEU-7769], in data set [1], the half-maximal effective concentration (EC50) is 1500 nM and the EC90 came to 3200 nM. Moreover, the CC50 at 48 h in data set [2] was greater than 10000 nM.

Consider `COC(=O)/C=C/C(=O)NNC(=O)CCc1ccccc1C(=O)N[C@H](C)c1cccc(-c2cnc(CN3CC[C@H](O)C3)s2)c1` [NEU-7770], for which, in data set [1], the half-maximal effective concentration (EC50) amounted to 140 nM and the EC90 was 880 nM. The CC50 at 48 h in data set [2] is greater than 10000 nM.

Consider `COC(=O)/C=C/C(=O)NNC(=O)CCc1ccccc1C(=O)N[C@@H](c1cccc2ccccc12)C(F)(F)F` [NEU-7772], for which the EC50 in data set [1] is greater than 10000 nM. Moreover, the CC50 at 48 h in data set [2] is greater than 10000 nM.

Regarding `COC(=O)/C=C/C(=O)NNC(=O)C(F)(F)c1ccccc1C(=O)N[C@H](C)c1cccc2ccccc12` [NEU-7792], in data set [1], the EC50 was 240 nM and the EC90 stood at 820 nM. For the same compound, the CC50 at 48 h in data set [2] was greater than 10000 nM.

In the case of `C[C@@H](NC(=O)c1ccccc1CCC(=O)NNC(=O)/C=C/C(=O)O)c1cccc2ccccc12` [NEU-8114], in data set [1], the 50% effective concentration (EC50) turned out to be 15 nM and the concentration for an effect of 90% (EC90) is 160 nM. The compound further yielded a CC50 at 48 h in data set [2] greater than 10000 nM.

The values are drawn from patent US20240317707A1, “COVALENT AND NON-COVALENT INHIBITORS OF CORONAVIRUS PAPAIN-LIKE PROTEASE” (UT-Battelle, LLC, priority 2023, published 2024).
